Source: patent US20220242846A1, “ISOINDOLINONE COMPOUNDS” (Monte Rosa Therapeutics AG, priority 2019, published 2022)
Where two headings read alike, the source gives them in different places.

Columns and labels:
[1] = biological target: T1, Full length wild-type cereblon CRBN (Homo sapiens, UniProt Q96SW2); test: Fluorescence polarization (FP) assay indicating cereblon binding; settings: CRBN 80.0 nM, fluorescent probe 5 nM, FP measured after 12 hours; read-out: rFP IC50
T1 construct: Full length wild-type cereblon CRBN (80.0 nM, 10 μL) was incubated in assay buffer
T1 sequence (Q96SW2 whole entry): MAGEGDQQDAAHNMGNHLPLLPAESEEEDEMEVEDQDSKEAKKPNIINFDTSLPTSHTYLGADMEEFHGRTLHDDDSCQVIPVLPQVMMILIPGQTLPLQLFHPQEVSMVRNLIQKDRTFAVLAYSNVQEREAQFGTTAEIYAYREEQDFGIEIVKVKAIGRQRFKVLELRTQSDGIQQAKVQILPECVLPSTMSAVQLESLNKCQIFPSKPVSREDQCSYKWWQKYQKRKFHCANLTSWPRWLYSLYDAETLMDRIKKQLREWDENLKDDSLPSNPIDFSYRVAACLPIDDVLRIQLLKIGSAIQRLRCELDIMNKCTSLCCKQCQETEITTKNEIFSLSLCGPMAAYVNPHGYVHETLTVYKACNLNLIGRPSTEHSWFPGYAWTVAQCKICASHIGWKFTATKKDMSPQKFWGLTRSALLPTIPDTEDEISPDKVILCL
Outline: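 Full-length wild-type human CRBN (80.0 nM) preincubated 30 min at room temperature with compound (12-point curve, 300-0.937 or 3000-9.3 nM) in HEPES pH 8.0, NaCl, TCEP, Tween 20. Thalidomide-based Cy5-type probe then added at 5 nM final; FP read after 12 h (ex 590, em 675 nm), normalized to DMSO, IC50 derived.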

[2] = test system: Human mammary epithelial cells (HMEC) engineered to express c-myc tagged with EGFP; test: 3D spheroid assay, myc-HMEC (CellTiterGlo3D viability); assay type: cell-based
Description: (§1) 3D Spheroid Experiments—HMEC
(§2) Human mammary epithelial cells (HMEC) were engineered to express either c-myc tagged with EGFP or EGFP alone (non myc) (analogous but distinct from Kessler J D et al, Science. 2012 Jan. 20; 335(6066):348-53. doi: 10.1126/science.1212728; Hsu T Y et al, Nature. 2015 Sep. 17; 525(7569):384-8. doi: 10.1038/nature14985). The engineered cells were seeded at 1000 (myc) or 4000 (non myc) cells/well in a 384 ultra-low attachment plate in a total volume of 40 µL, HMEC cell culture media (DMEM/F12+10% HI-FBS+15 mM HEPES+0.5 ug/ml Hydrocortisone+10 ug/ml Insulin+20 ng/ml EGF). Plates were spun at 1200 rpm for 5 minutes at room temperature to ensure that cells have gathered in the middle of the well and incubated at 37° C. for 48 hrs before firing with compounds. On Day 2 (48 h post seeding) cells were imaged (brightfield and EGFP fluorescence) using the Celigo imaging cytometer prior to firing compounds. For primary screens, compounds were added at three concentrations (1.25, 10 and 30 uM) in a volume of 120 nL using the ECHO acoustic dispenser and spun at 2000 rpm for 2 minutes at room temperature before incubating at 37° C. for 5 days. […] On Day 7, prior to measuring cell viability using CellTiterGlo3D, cells were imaged (brightfield and EGFP fluorescence) on the Celigo imaging cytometer. The CellTiterGlo3D reagent is added at 30uL/well and incubated at room temperature for 30mins After 30mins of incubation, luminescence readings were recorded using the Perkin Elmer EnVision reader.

[3] = test system: Human mammary epithelial cells (HMEC) engineered to express EGFP alone (non myc); test: 3D spheroid assay, non myc-HMEC (CellTiterGlo3D viability); assay type: cell-based; settings: 120 h, 3D spheroids, 5 days with compound, read-out: Code: EC50 value in the non myc-HMEC assay
Description: as §1, §2

[4] = biological target: GSPT1 (Homo sapiens, UniProt P15170+Q96SW2); test: Immunofluorescence assay for GSPT1 degradation in CAL-51 cells; assay type: cell-based; set-up: CAL-51 cells were purchased from DSMZ (cat. Number ACC302); endogenous in cells; host or cells: CAL-51 (DSMZ ACC302); settings: compound treatment 6 hours
GSPT1, sequence (P15170 whole entry): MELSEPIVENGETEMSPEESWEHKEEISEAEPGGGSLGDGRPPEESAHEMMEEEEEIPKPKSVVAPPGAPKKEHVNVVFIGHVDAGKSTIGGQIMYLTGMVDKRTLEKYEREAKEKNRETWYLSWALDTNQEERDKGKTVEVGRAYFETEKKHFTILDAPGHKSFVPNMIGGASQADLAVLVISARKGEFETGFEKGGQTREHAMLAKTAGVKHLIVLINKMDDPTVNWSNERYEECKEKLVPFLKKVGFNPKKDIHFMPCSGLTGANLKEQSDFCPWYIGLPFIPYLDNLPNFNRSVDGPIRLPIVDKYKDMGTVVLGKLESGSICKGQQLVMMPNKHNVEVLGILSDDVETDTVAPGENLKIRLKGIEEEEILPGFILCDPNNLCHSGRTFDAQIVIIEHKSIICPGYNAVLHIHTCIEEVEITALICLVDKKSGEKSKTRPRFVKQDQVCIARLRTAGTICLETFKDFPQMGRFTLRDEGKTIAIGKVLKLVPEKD
GSPT1, sequence (Q96SW2 whole entry): as the sequence (Q96SW2 whole entry) above
GSPT1, sequence (Q16531 2-1140 partner limits assumed): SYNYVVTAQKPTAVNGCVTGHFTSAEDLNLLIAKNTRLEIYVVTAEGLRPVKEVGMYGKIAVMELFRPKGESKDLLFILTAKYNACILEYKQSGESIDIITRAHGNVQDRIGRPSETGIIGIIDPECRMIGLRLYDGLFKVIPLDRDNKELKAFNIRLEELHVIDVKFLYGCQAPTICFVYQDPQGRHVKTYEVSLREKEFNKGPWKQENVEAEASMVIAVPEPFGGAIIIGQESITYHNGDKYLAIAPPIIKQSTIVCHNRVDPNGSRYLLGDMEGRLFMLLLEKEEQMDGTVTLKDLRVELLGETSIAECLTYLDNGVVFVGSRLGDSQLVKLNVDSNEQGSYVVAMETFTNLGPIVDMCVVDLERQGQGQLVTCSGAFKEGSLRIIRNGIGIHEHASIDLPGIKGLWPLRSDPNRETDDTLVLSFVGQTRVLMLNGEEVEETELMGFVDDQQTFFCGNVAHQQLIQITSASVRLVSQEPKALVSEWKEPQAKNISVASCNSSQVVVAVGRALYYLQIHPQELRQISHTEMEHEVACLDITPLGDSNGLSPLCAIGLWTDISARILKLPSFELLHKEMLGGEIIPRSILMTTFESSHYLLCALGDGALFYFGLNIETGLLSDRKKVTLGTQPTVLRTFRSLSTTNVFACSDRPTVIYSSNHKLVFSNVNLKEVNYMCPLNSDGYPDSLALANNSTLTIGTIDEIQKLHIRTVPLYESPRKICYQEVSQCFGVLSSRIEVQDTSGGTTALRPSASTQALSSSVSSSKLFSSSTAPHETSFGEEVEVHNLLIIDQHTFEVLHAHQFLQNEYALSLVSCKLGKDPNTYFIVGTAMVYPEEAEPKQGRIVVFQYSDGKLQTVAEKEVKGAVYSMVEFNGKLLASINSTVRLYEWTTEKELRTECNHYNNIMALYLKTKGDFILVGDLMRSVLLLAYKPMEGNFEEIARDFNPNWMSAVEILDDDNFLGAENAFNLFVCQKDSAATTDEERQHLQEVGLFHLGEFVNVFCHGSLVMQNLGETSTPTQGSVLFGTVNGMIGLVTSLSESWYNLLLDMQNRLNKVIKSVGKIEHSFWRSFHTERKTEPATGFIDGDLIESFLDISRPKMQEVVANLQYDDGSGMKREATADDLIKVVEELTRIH
Outline: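 CAL-51 cells on fibronectin-coated plates treated 6 h with compound (30 μM to 0.1 nM); fixed, stained with anti-GSPT1/Alexa-488, phalloidin and DAPI, imaged by high-content microscopy. Mean GSPT1 intensity per cell normalized to controls; DC50 by non-linear regression.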

[5] = Homo sapiens, HMEC, 120 h, 3D spheroids, 5 days with compound, read-out: Code: EC50 value in the myc-HMEC assay
[6] = myc-HMEC 3D spheroids (compounds with code D and E), 5 days, read-out: EC50
[7] = read-out: Code: activity for GSPT1 degradation (DC50)
[8] = Homo sapiens, HMEC, 120 h, myc-HMEC 3D spheroids (compounds with code D and E), 5 days, read-out: EC50
[9] = GSPT1 degradation, read-out: DC50

Compound	IC50 [1] [µM]	EC50 [2, 5] [µM]	EC50 [2, 6] [µM]	EC50 [3] [µM]	DC50 [4, 7] [µM]	EC50 [2, 8] [µM]	DC50 [4, 9] [µM]
Cc1cc(C)cc(NC(=O)NCc2ccc3c(c2)C(=O)N(C2CCC(=O)NC2=O)C3)c1 (stereo not drawn) [Compound 20]	0.55	0.4 to 2	0.555	> 10	≤ 0.1		
Cc1ccc(NC(=O)NCc2ccc3c(c2)C(=O)N(C2CCC(=O)NC2=O)C3)cc1 (stereo not drawn) [Compound 21]	0.622	> 2		> 10	> 0.3		
CCOc1ccccc1NC(=O)NCc1ccc2c(c1)C(=O)N(C1CCC(=O)NC1=O)C2 (stereo not drawn) [Compound 22]	0.393	> 2		> 10	> 0.3		
COc1ccc(NC(=O)NCc2ccc3c(c2)C(=O)N(C2CCC(=O)NC2=O)C3)c(C)c1 (stereo not drawn) [Compound 23]	0.464	> 2		> 10	> 0.3		
O=C1CCC(N2Cc3ccc(CNC(=O)NCc4ccccc4)cc3C2=O)C(=O)N1 (stereo not drawn) [Compound 24]	1.59	> 2		> 10	> 0.3		
Cc1cccc(C)c1NC(=O)NCc1ccc2c(c1)C(=O)N(C1CCC(=O)NC1=O)C2 (stereo not drawn) [Compound 25]	0.612	> 2		> 10	> 0.3		
O=C1CCC(N2Cc3ccc(CNC(=O)NCC4CC4)cc3C2=O)C(=O)N1 (stereo not drawn) [Compound 26]	0.907	> 2		> 10	> 0.3		
O=C1CCC(N2Cc3ccc(CNC(=O)NCCc4ccccc4)cc3C2=O)C(=O)N1 (stereo not drawn) [Compound 27]	0.444	> 2		> 10	> 0.3		
O=C1CCC(N2Cc3ccc(CNC(=O)NC4CCCC4)cc3C2=O)C(=O)N1 (stereo not drawn) [Compound 28]	0.814	> 2		> 10	> 0.3		
O=C1CCC(N2Cc3ccc(CNC(=O)NC4CCCCC4)cc3C2=O)C(=O)N1 (stereo not drawn) [Compound 29]	1.14	> 2		> 10	> 0.3		
COc1ccc(Cl)cc1NC(=O)NCc1ccc2c(c1)C(=O)N(C1CCC(=O)NC1=O)C2 (stereo not drawn) [Compound 30]	0.58	≤ 0.4	0.359	> 10	≤ 0.1		
CCc1cccc(NC(=O)NCc2ccc3c(c2)C(=O)N(C2CCC(=O)NC2=O)C3)c1 (stereo not drawn) [Compound 31]	0.595	0.4 to 2	0.457	> 10	0.1 to 0.3		
Cc1cc(Cl)ccc1NC(=O)NCc1ccc2c(c1)C(=O)N(C1CCC(=O)NC1=O)C2 (stereo not drawn) [Compound 32]	0.508	> 2		> 10	> 0.3		
O=C1CCC(N2Cc3ccc(CNC(=O)Nc4cccc(Cl)c4F)cc3C2=O)C(=O)N1 (stereo not drawn) [Compound 33]	0.591	≤ 0.4	0.25	> 10	≤ 0.1		
O=C1CCC(N2Cc3ccc(CNC(=O)Nc4cccc(F)c4)cc3C2=O)C(=O)N1 (stereo not drawn) [Compound 34]	0.481	> 2		> 10	> 0.3		
O=C1CCC(N2Cc3ccc(CNC(=O)Nc4cc(Cl)ccc4Cl)cc3C2=O)C(=O)N1 (stereo not drawn) [Compound 35]	0.602	> 2		> 10	> 0.3		
CCc1ccccc1NC(=O)NCc1ccc2c(c1)C(=O)N(C1CCC(=O)NC1=O)C2 (stereo not drawn) [Compound 36]	0.546	> 2		> 10	> 0.3		
Cc1ccccc1NC(=O)NCc1ccc2c(c1)C(=O)N(C1CCC(=O)NC1=O)C2 (stereo not drawn) [Compound 37]	0.672	> 2		> 10	> 0.3		

Compound	IC50 [1] [µM]	EC50 [2, 5] [µM]	EC50 [2, 6] [µM]	EC50 [3] [µM]	DC50 [4, 7] [µM]	EC50 [2, 8] [µM]	DC50 [4, 9] [µM]
O=C1CCC(N2Cc3ccc(CNC(=O)Nc4cc(Cl)cc(Cl)c4)cc3C2=O)C(=O)N1 (stereo not drawn) [Compound 38]	0.589	≤ 0.4	0.161	> 10	0.1 to 0.3		
O=C1CCC(N2Cc3ccc(CNC(=O)Nc4ccc(F)c(F)c4)cc3C2=O)C(=O)N1 (stereo not drawn) [Compound 39]	0.587	> 2		> 10	> 0.3		
O=C1CCC(N2Cc3ccc(CNC(=O)NC4CCCc5ccccc54)cc3C2=O)C(=O)N1 (stereo not drawn) [Compound 40]	0.566	> 2		> 10	> 0.3		
O=C1CCC(N2Cc3ccc(CNC(=O)Nc4ccc(C(F)(F)F)cc4)cc3C2=O)C(=O)N1 (stereo not drawn) [Compound 41]	0.59	0.4 to 2	1.09	> 10	0.1 to 0.3	≤ 2	0.172
O=C1CCC(N2Cc3ccc(CNC(=O)Nc4ccc(F)c(Cl)c4)cc3C2=O)C(=O)N1 (stereo not drawn) [Compound 42]	0.589	0.4 to 2	1.72	> 10	0.1 to 0.3	≤ 2	0.253
Cc1cccc(NC(=O)NCc2ccc3c(c2)C(=O)N(C2CCC(=O)NC2=O)C3)c1 (stereo not drawn) [Compound 43]	0.757	> 2		> 10	> 0.3		
Cc1cccc(NC(=O)NCc2ccc3c(c2)C(=O)N(C2CCC(=O)NC2=O)C3)c1C (stereo not drawn) [Compound 44]	0.747	> 2		> 10	> 0.3		
O=C1CCC(N2Cc3ccc(CNC(=O)Nc4ccc(Cl)cc4Cl)cc3C2=O)C(=O)N1 (stereo not drawn) [Compound 45]	0.472	> 2		> 10	> 0.3		
O=C1CCC(N2Cc3ccc(CNC(=O)Nc4ccc(Cl)c(Cl)c4)cc3C2=O)C(=O)N1 (stereo not drawn) [Compound 46]	1.4	0.4 to 2	0.469	> 10	≤ 0.1		
O=C1CCC(N2Cc3ccc(CNC(=O)Nc4cccc(C(F)(F)F)c4)cc3C2=O)C(=O)N1 (stereo not drawn) [Compound 47]	1.08	0.4 to 2	0.544	> 10	≤ 0.1		
O=C1CCC(N2Cc3ccc(CNC(=O)Nc4ccccc4F)cc3C2=O)C(=O)N1 (stereo not drawn) [Compound 48]	0.719	> 2		> 10	> 0.3		
O=C1CCC(N2Cc3ccc(CNC(=O)Nc4ccccc4C(F)(F)F)cc3C2=O)C(=O)N1 (stereo not drawn) [Compound 49]	0.867	> 2		> 10	> 0.3		
O=C1CCC(N2Cc3ccc(CNC(=O)Nc4cccc(Cl)c4Cl)cc3C2=O)C(=O)N1 (stereo not drawn) [Compound 50]	0.479	> 2		> 10	> 0.3		
COc1ccc(CNC(=O)NCc2ccc3c(c2)C(=O)N(C2CCC(=O)NC2=O)C3)cc1 (stereo not drawn) [Compound 52]	0.477	> 2		> 10	> 0.3		
COc1cccc(CNC(=O)NCc2ccc3c(c2)C(=O)N(C2CCC(=O)NC2=O)C3)c1 (stereo not drawn) [Compound 53]	0.364	> 2		> 10	> 0.3		
C[C@@H](NC(=O)NCc1ccc2c(c1)C(=O)N(C1CCC(=O)NC1=O)C2)c1ccccc1 (stereo partly drawn) [Compound 54]	0.471	> 2		> 10	> 0.3		
C[C@H](NC(=O)NCc1ccc2c(c1)C(=O)N(C1CCC(=O)NC1=O)C2)c1ccccc1 (stereo partly drawn) [Compound 55]	0.497	> 2		> 10	> 0.3		
